# Key:
# [1] = target: Serotonin 3 (5-HT3) receptor; experiment: Binding affinity towards [3H]quipazine labeled 5-hydroxytryptamine 3 receptor sites in HG108-15; format: protein-complex assay, Cavia porcellus
# Rattus norvegicus [2] = experiment: Effective dose causing reduction of serotonin effect at 5 min administered iv in Bezold-Jarisch reflex test; format: functional
# Rattus norvegicus [3] = experiment: Inhibition of restraint stress induced defecation by oral administration (inhibition at 1 mg/kg)
# Rattus norvegicus [4] = experiment: Inhibition of restraint stress induced defecation by oral administration (inhibition percent at 1 mg/kg)
# Rattus norvegicus [5] = species: Rattus norvegicus; experiment: Inhibition of wrap-restraint stress-induced colonic propulsion measured by the time required to expel a teflon ball inserted 3 cm into the rat colon; format: functional; conditions: read-out: ID50 (the source's name)
# Rattus norvegicus [6] = species: Rattus norvegicus; experiment: animal or person; format: functional; conditions: sc, dose mg/kg 1-10, route subcutaneous, read-out: ID50 (the source's name)
# Description: Inhibitory dose causing inhibition of increase in 5-HT induced defecation by sc administration 1 to 10 mg/kg
# Rattus norvegicus [7] = experiment: Inhibitory dose causing inhibition of increase in castor oil induced diarrhea by oral administration at 1 ml/rat; format: functional; conditions: read-out: ID50 (the source's name)
# Rattus norvegicus [8] = species: Rattus norvegicus; experiment: animal or person; format: functional; conditions: sc, route subcutaneous, read-out: ID50 (the source's name)
# Description: Inhibitory dose causing inhibition of increase in thyrotropin-releasing hormone (TRH) induced defecation by sc administration at 1 mg/kg
# Rattus norvegicus [9] = experiment: Inhibitory dose causing inhibition of restraint stress induced defecation by oral administration; format: functional; conditions: read-out: ID50 (the source's name)
# Rattus norvegicus [10] = experiment: Inhibitory dose causing inhibition of restraint stress induced defecation by oral administration ((inhibition percent at 1 mg/kg); format: functional; conditions: read-out: ID50 (the source's name)
# Rattus norvegicus [11] = experiment: Inhibitory dose causing inhibition of increase in 5-HT induced defecation by sc administration at 1 to 10 mg/kg; format: functional; conditions: dose mg/kg 1-10, route subcutaneous, read-out: ID50 (the source's name)
Structure (SMILES),Ki [1],ED50 (Rattus norvegicus [2]),Inhibition % at 1 mg/kg (Rattus norvegicus [4]),ED50 (Rattus norvegicus [9]),other results
CC(C)Cc1cc(C(=O)OC2CC3CCC(C2)N3C)c2ccccc2n1 (configuration not stated),0.69 nM,5.6 µg/kg,–,–,Inhibition % at 1 mg/kg (Rattus norvegicus [3]): 28%
CCCCn1c(=O)c(C(=O)NC2CC3CCC(C2)N3C)c(O)c2cccnc21 (configuration not stated),6.4 nM,290 µg/kg,–,–,Inhibition % at 1 mg/kg (Rattus norvegicus [3]): 35%
CCCOc1cc(C(=O)NC2CC3CCC(C2)N3C)c2ccccc2n1 (configuration not stated),42 nM,1540 µg/kg,29%,–,–
CN1C2CCC1CC(NC(=O)c1cnc3ccccc3c1O)C2 (configuration not stated),1.5 nM,0.1 µg/kg,–,1400 µg/kg,ED50 (Rattus norvegicus [5]): 1800 µg/kg; ED50 (Rattus norvegicus [6]): 690 µg/kg; ED50 (Rattus norvegicus [7]): 790 µg/kg; ED50 (Rattus norvegicus [8]): 53 µg/kg
CCCCOc1cc(C(=O)OC2CC3CCC(C2)N3C)c2ccccc2n1 (configuration not stated),0.39 nM,200 µg/kg,64%,–,–
CC(C)n1c(=O)cc(C(=O)OC2CC3CCC(C2)N3C)c2ccccc21 (configuration not stated),0.32 nM,81 µg/kg,–,40 µg/kg,–
CCCCCCn1c(=O)cc(C(=O)OC2CC3CCC(C2)N3C)c2ccccc21 (configuration not stated),1.1 nM,86 µg/kg,–,66 µg/kg,–
CCCCn1c(=O)cc(C(=O)OC2CC3CCC(C2)N3C)c2ccccc21 (configuration not stated),0.68 nM,41 µg/kg,–,140 µg/kg,–
COc1cc(C(=O)OC2CC3CCC(C2)N3C)c2ccccc2n1 (configuration not stated),0.58 nM,420 µg/kg,–,45000 µg/kg,–
CN1C2CCC1CC(NC(=O)c1cc(=O)n(-c3ccccc3)c3ccccc13)C2 (configuration not stated),63 nM,190 µg/kg,14%,–,–
Cc1nc2ccccc2c(O)c1C(=O)NC1CC2CCC(C1)N2C (configuration not stated),7.2 nM,15 µg/kg,–,–,Inhibition % at 1 mg/kg (Rattus norvegicus [3]): 41%
CCCn1c(=O)cc(C(=O)NC2CC3CCC(C2)N3C)c2ccccc21 (configuration not stated),67 nM,350 µg/kg,12%,–,–
CCCCCn1c(=O)cc(C(=O)OC2CC3CCC(C2)N3C)c2ccccc21 (configuration not stated),0.96 nM,59 µg/kg,–,73 µg/kg,–
CC(C)Cn1c(=O)cc(C(=O)OC2CC3CCC(C2)N3C)c2ccccc21 (configuration not stated),0.47 nM,33 µg/kg,–,13 µg/kg,ED50 (Rattus norvegicus [5]): 10 µg/kg; ED50 (Rattus norvegicus [6]): 18 µg/kg; ED50 (Rattus norvegicus [7]): 1400 µg/kg; ED50 (Rattus norvegicus [8]): 21 µg/kg
CC(C)COc1cc(C(=O)OC2CC3CCC(C2)N3C)c2ccccc2n1 (configuration not stated),0.44 nM,240 µg/kg,–,–,ED50 (Rattus norvegicus [10]): 36000 µg/kg
CCCCOc1cc(C(=O)NC2CC3CCC(C2)N3C)c2ccccc2n1 (configuration not stated),19 nM,540 µg/kg,43%,–,–
CN1C2CCC1CC(OC(=O)c1cc(=O)n(Cc3ccccc3)c3ccccc13)C2 (configuration not stated),1.3 nM,150 µg/kg,22%,–,–

Structure (SMILES),Ki [1],ED50 (Rattus norvegicus [2]),Inhibition % at 1 mg/kg (Rattus norvegicus [4]),ED50 (Rattus norvegicus [9]),other results
CCCCn1c(=O)c(C(=O)NC2CC3CCC(C2)N3C)c(O)c2ccccc21 (configuration not stated),0.48 nM,290 µg/kg,–,–,Inhibition % at 1 mg/kg (Rattus norvegicus [3]): 61%
CCCCCOc1cc(C(=O)OC2CC3CCC(C2)N3C)c2ccccc2n1 (configuration not stated),0.86 nM,1130 µg/kg,–,30000 µg/kg,–
CCn1c(=O)cc(C(=O)OC2CC3CCC(C2)N3C)c2ccccc21 (configuration not stated),1.1 nM,22 µg/kg,–,52 µg/kg,–
CCCCn1c(=O)cc(C(=O)NC2CC3CCC(C2)N3C)c2ccccc21 (configuration not stated),60 nM,370 µg/kg,47%,–,–
CN1C2CCC1CC(NC(=O)c1c(O)c3ccccc3n(-c3ccccc3)c1=O)C2 (configuration not stated),1.4 nM,73 µg/kg,–,–,Inhibition % at 1 mg/kg (Rattus norvegicus [3]): 48%
CCOc1cc(C(=O)OC2CC3CCC(C2)N3C)c2ccccc2n1 (configuration not stated),0.88 nM,70 µg/kg,36%,–,–
CCCn1c(=O)cc(C(=O)OC2CC3CCC(C2)N3C)c2ccccc21 (configuration not stated),0.45 nM,330 µg/kg,–,170 µg/kg,–
Cn1cc(C(=O)C2CCc3nc[nH]c3C2)c2ccccc21 (configuration not stated),0.071 nM,0.089 µg/kg,–,5.2 µg/kg,ED50 (Rattus norvegicus [5]): 69 µg/kg; ED50 (Rattus norvegicus [6]): 13 µg/kg; ED50 (Rattus norvegicus [7]): 1100 µg/kg; ED50 (Rattus norvegicus [8]): 5.1 µg/kg
CN1C2CCC1CC(OC(=O)c1cc(-c3ccccc3)nc3ccccc13)C2 (configuration not stated),71 nM,340 µg/kg,–,–,–
CC(C)CCn1c(=O)cc(C(=O)OC2CC3CCC(C2)N3C)c2ccccc21 (configuration not stated),1.5 nM,59 µg/kg,–,41 µg/kg,–
CC(C)Oc1cc(C(=O)NC2CC3CCC(C2)N3C)c2ccccc2n1 (configuration not stated),53 nM,1860 µg/kg,–,39000 µg/kg,–
CN1C2CCC1CC(OC(=O)c1cc(=O)n(-c3ccccc3)c3ccccc13)C2 (configuration not stated),0.51 nM,44 µg/kg,59%,–,–
CN1C2CCC1CC(OC(=O)c1cc(=O)n(C)c3ccccc13)C2 (configuration not stated),2.6 nM,180 µg/kg,47%,–,–
CN1C2CCC1CC(OC(=O)c1cnc3ccccc3c1O)C2 (configuration not stated),6.1 nM,1.7 µg/kg,–,–,Inhibition % at 1 mg/kg (Rattus norvegicus [3]): 13%
CCCCCCOc1cc(C(=O)OC2CC3CCC(C2)N3C)c2ccccc2n1 (configuration not stated),3.2 nM,7680 µg/kg,23%,–,–
Cc1nccn1CC1CCc2c(c3ccccc3n2C)C1=O (configuration not stated) [ONDANSETRON],–,–,–,27 µg/kg,ED50 (Rattus norvegicus [5]): 1600 µg/kg; ED50 (Rattus norvegicus [11]): 530 µg/kg; ED50 (Rattus norvegicus [7]): 1400 µg/kg; ED50 (Rattus norvegicus [8]): 310 µg/kg

# Reference: ChEMBL document CHEMBL1126872, “5-HT3 receptor antagonists. 3. Quinoline derivatives which may be effective in the therapy of irritable bowel syndrome” (J Med Chem, 1993)
